Laboratory results as given in article PMC10555500, “Evaluation of the Antiproliferative Properties of CpRu Complexes Containing N-Methylated Triazaphosphaadamantane Derivatives” (Bioinorganic Chemistry and Applications, 2023).

Tested on: MDA-MB-231 breast cancer cells
Experiment: MTT cytotoxicity assay, MDA-MB-231 cells
Assay type: cell-based, human
Conditions: for IC50: 24 h incubation, MTT, average of at least three experiments (±SD); for Cytotoxicity (in words): MDA-MB-231, MTT, 24 h
Experimental: The MDA-MB-231 and MCF-7 human breast cancer cells were purchased from ATCC. The MDA-MB-231 and MCF-7 cells were grown in Dulbecco's modified Eagles' medium (DMEM high glucose) (Capricorn Scientific) at 37°C in 5% CO2 supplemented with 10% fetal bovine serum (Capricorn Scientific). HDF cells were purchased from Merck and were grown in the fibroblast growth medium. All cells were adherent in monolayers and, upon confluence, were washed with phosphate buffer saline (PBS) and harvested by digestion with trypsin-EDTA 0.05% (v/v). The cells were suspended and transferred into new, sterile, culture flasks for maintenance or seeded in sterile test microplates for different assays. All cells were manipulated under aseptic conditions in a flow chamber.
The cells were adherent in monolayers and, upon confluence, were harvested by digestion with trypsin. The cytotoxicity of the complexes against the tumour cells was assessed using the colorimetric assay MTT […], which evaluates the metabolic activity of viable cells. This assay measures the conversion of yellow tetrazolium into purple formazan by an active mitochondrial dehydrogenase in living cells. For this purpose, the cells (10–20 × 10^3 in 200 μL of the medium) were seeded into 96-well plates and incubated in a 5% CO2 incubator at 37°C. The cells were settled for 24 h followed by the addition of a dilution series of the complexes in a medium (200 μL). The complexes were first solubilized in 100% DMSO, given a 10 mM stock solution, and then in a medium within the concentration range of 0.1–100 µM. […] After 24 h of incubation, the treatment solutions were removed by aspiration, and MTT solution (200 μL, 0.5 mg·mL^−1 in PBS) was added to each well. After 3 h at 37°C/5% CO2, the solution was removed, and the purple formazan crystals formed inside the cells were dissolved in DMSO (200 μL) by thorough shaking. The cellular viability was evaluated by measuring the absorbance at 570 nm by using a microplate spectrophotometer. The IC50 values were obtained by dose-response curves using the GraphPad Prism software (vs. 5).
The MDA-MB-231 and MCF-7 human breast cancer cells were purchased from ATCC. MDA-MB-231 and MCF-7 cells were grown in Dulbecco’s modified Eagles’s medium (DMEM high glucose) (Capricorn Scientific) at 37 °C in 5% CO2 supplemented with 10% fetal bovine serum (Capricorn Scientific). All cells were adherent in monolayers and, upon confluence, were washed with phosphate buffer saline (PBS) and harvested by digestion with Trypsin-EDTA 0.05% (v/v). The cells were suspended and transferred into new, sterile, culture flasks, for maintenance or seeded in sterile test microplates for different assays. All cells were manipulated under aseptic conditions in a flow chamber.
The cells were adherent in monolayers and, upon confluency, were harvested by digestion with trypsin. The cytotoxicity of the complexes against the tumour cells was assessed using the colorimetric assay MTT […], which evaluate the metabolic activity of viable cells. This assay measures the conversion of the yellow tetrazolium into purple formazan by an active mitochondrial dehydrogenase in living cells. For this purpose, cells (10-20 × 10^3 in 200 μL of medium) were seeded into 96-well plates and incubated in a 5% CO2 incubator at 37 °C. The cells were settled for 24 h followed by the addition of a dilution series of the complexes in medium (200 μL). The complexes were first solubilized in 100% DMSO, given a 10 mM stock solution, and then in medium within the concentration range of 0.1–100 µM. […] After 24 h of incubation, the treatment solutions were removed by aspiration, and MTT solution (200 μL, 0.5 mg·mL^-1 in PBS) was added to each well. After 3 h at 37 °C/5% CO2, the solution was removed, and the purple formazan crystals formed inside the cells were dissolved in DMSO (200 μL) by thorough shaking. […]

Structure (SMILES): C1N2CN3CN1CP(C2)C3 [Compound 1, 1,3,5-triaza-7-phosphaadamantane]
- IC50 (Homo sapiens, MDA-MB-231): > 100 µM

Structure (SMILES): C[N+]12CN3CN(CP(C3)C1)C2 [Compound 2, N-methyl-1,3,5-triaza-7-phosphaadamantane]
- IC50 (Homo sapiens, MDA-MB-231): > 100 µM

Structure (SMILES): C[N+]12CN3CP(C1)C[N+](C)(C3)C2 [Compound 3, N,N′-dimethyl-1,3,5-triaza-7-phosphaadamantane]
- IC50 (Homo sapiens, MDA-MB-231): > 100 µM

Structure (SMILES): [Cl][Ru+]([P]12CN3CN(CN(C3)C1)C2)[P]12CN3CN(CN(C3)C1)C2.c1cc[cH-]c1 [Compound 4, [RuClCp(PTA)2]]
- IC50: > 100 µM
- Cytotoxicity (in words): noncytotoxic

Structure (SMILES): [Cl][Ru+]([P]12CN3CN(CN(C3)C1)C2)[P](c1ccccc1)(c1ccccc1)c1ccccc1.c1cc[cH-]c1 [Compound 5, [RuClCp(PPh3)(PTA)]]
- IC50: 60 ± 19 µM
- Cytotoxicity (in words): Moderate cytotoxicity
